In BigSolDB 2.1:

NCCCCCC(=O)O
solubility (mole fraction)
Settings | 283.15 K | 288.15 K | 293.15 K | 298.15 K | 303.15 K | 308.15 K | 313.15 K | 318.15 K | 323.15 K
in ethyl acetate | 0.000146 | 0.00016 | 0.000174 | 0.000188 | 0.0002 | 0.000221 | 0.000241 | 0.000262 | 0.000289
in isopropanol | 7.7e-05 | 8.1e-05 | 9.2e-05 | 0.000108 | 0.000123 | 0.000142 | 0.000162 | 0.000181 | 0.0002
in methyl acetate | 0.000119 | 0.000129 | 0.00014 | 0.000146 | 0.000154 | 0.000161 | 0.000166 | 0.00017 | 0.000172
in water | 0.118 | 0.126 | 0.13 | 0.137 | 0.145 | 0.152 | 0.155 | 0.16 | 0.167
